Structure (SMILES) | melting point
Cc1c(C#N)sc2nc(-c3ccc4c(c3)OCO4)nc(N3CCOCC3)c12 | 197 to 198 °C
CCCc1n[nH]c(C(N)=O)c1[N+](=O)[O-] | 197 to 199 °C
Cn1cc(-c2ccccc2)c(=O)c(-c2ccc(-c3ccccc3)cc2)c1 | 186 to 190 °C
O=CN(O)C(CC1CCC2(CC1)OCCO2)CS(=O)(=O)c1ccc(Oc2ccc(OC(F)(F)F)cc2)cc1 (stereo unspecified) | 140 to 141 °C
O=C(O)/C=C1\CCc2c(F)cc(F)cc21 | 238 to 239 °C
CC(C)Oc1ccc(S(=O)(=O)N2CCCC2=O)cc1 | 88 to 90 °C
O=C(C(=O)N1CCN(c2cccc3[nH]ccc23)CC1)c1c[nH]c2cc(Cl)ccc12 | 229 to 231 °C
O=C(CCC1CCNCC1)c1cc2c3c(c1)CCN3C(=O)CC2 | 114 to 115 °C
Cc1nnc(-c2ccc3occ(-c4ccc(S(=O)C(C)C)cc4)c3c2)o1 (stereo unspecified) | 157 to 158 °C
O=C(O)c1ccc2c(c1)CN(C(=O)OCc1ccccc1)C2 | 197 to 199 °C
CNC[C@H]1CC[C@H](C(=O)O)CC1 | 261 °C
CC(=O)c1ccc(NC(=O)NCC2(c3ccccc3)CCCCC2)cc1 | 164 to 165 °C
CC(=S)c1ccc(-c2ccccc2)cc1 | 48 to 50 °C
CN(C)CC1CCCN(c2cc3ccccc3c(=O)[nH]2)C1 (stereo unspecified) | 141 to 143 °C
COc1cc(N2CCC(N3CCCN(CCO)CC3)CC2)ccc1Nc1ncc2ccc(-c3ccccc3OC)n2n1 | 72 to 80 °C
COc1ccc2c(c1)c(CC(=O)ON(C(N)=O)C(C)c1cc3ccccc3s1)c(C)n2C(=O)c1ccc(Cl)cc1 (stereo unspecified) | 153 to 155 °C
CCNC(=O)NC(N)=O | 158 to 160 °C
COc1ccc(OC(C(=O)N(C)C)C2(O)CCCCC2)cc1 (stereo unspecified) | 98 to 99 °C
CC1(C)CCC(C)(C)c2cc3c(cc21)OCC=C3Cc1ccc(C(=O)O)cc1 | 200 to 201 °C
Cn1nc(-c2ccccc2)c(N=O)c1N | 230 to 231 °C
COC(=O)C(C(C)C)N(C)S(=O)(=O)c1ccc(-c2ccc(NC(=O)c3oc4cccc(C(O)CO)c4c3C)cc2)cc1 (stereo unspecified) | 182 to 185 °C
CC(C)N1CCC(n2nc(-c3c(-c4ccccc4)nn4ccccc34)ccc2=O)CC1 | 158 °C
CN1Cc2c(-c3nc(CCl)cs3)ncn2-c2cccc(Cl)c2C1=O | 277 to 279 °C
CCCCCCCN(C[C@H]1CCCC[C@H]1CN(CCCCCCC)C(=O)Nc1ccc(N(C)C)cc1)C(=O)Nc1ccc(N(C)C)cc1 | 135 to 138 °C
CC1CC(=O)NN=C1c1ccc(NN=C(c2ccc(O)cc2O)c2ccc(O)cc2O)cc1 (stereo unspecified) | 150 to 175 °C

More lines, now with the values ahead:

melting point | Structure (SMILES)
140 to 145 °C | CN(C)CCNc1cc(Cl)nc(-c2ccccc2)n1
274 °C | COc1ccc(-c2[nH]nc3c2C(=O)c2c(NC(=O)CCl)cccc2-3)cc1
109 to 110 °C | O=C1CCCN1c1cn(-c2cccnc2)nc1Cl
149 to 150 °C | CCCCOC(=O)/C=C/c1ccc2c(=O)n(CC(C)C)c(CNC(=O)OC(C)(C)C)c(-c3ccc(Cl)cc3)c2c1
79 to 80 °C | COc1ccccc1NC(=O)c1ccncc1
> 250 °C | Cn1ncc(C(=O)c2ccc(S(C)(=O)=O)c(C3=NOCC3)c2Cl)c1O
146 to 150 °C | CCCCC(=O)Nc1ccc(Oc2ncc(Cl)cn2)c(C)c1
261 to 262 °C | Cc1cccc(C)c1NC(=O)CN1C(=O)C2(COc3cc4c(cc32)CCO4)c2ccccc21 (stereo unspecified)
139 to 140 °C | CCOC(=O)C(NC(=O)C(C)C)C(=O)Cc1ccc(Cl)cc1Cl (stereo unspecified)
165 to 166 °C | CCC/C=C/S(=O)(=O)NC(=O)c1ccc2nc(C)n(Cc3ccc(N(C)C(=O)OCC)cc3Cl)c2n1
236 to 240 °C | COc1cccc(OC)c1C(=O)Nc1ccc(C(=O)O)cc1
239 to 240 °C | CCN(CC)C(=O)C1=NN(c2ccccc2)C(C(N)=O)=NN1c1ccccc1
155 to 156 °C | CC(C)(C)c1ccc(CCC(=O)C2CCCCCC2)cc1NC(=O)CC1c2ccccc2Oc2ccccc21
176 to 178 °C | CC(=O)N(c1cc2occc(=O)c2cc1Oc1ccc(F)cc1F)S(C)(=O)=O
162 to 164 °C | COC(=O)c1sc(-n2cccn2)cc1O
70 °C | CCOC(=O)C(C)(C)Oc1ccc2c(-c3ccc(Cl)cc3)noc2c1
217 °C | CSc1ccc2ccc(C(=O)O)cc2c1
162 to 163 °C | CCOC(=O)c1cc2cc(OCCOC)cc(N)c2[nH]1
141 to 144 °C | CC1CC(=O)c2cc(OCc3ccc4ccccc4n3)cnc2C1 (stereo unspecified)
150 to 152 °C | O=C1c2cc(O)ccc2OCC1Cc1nccs1 (stereo unspecified)
186 to 187 °C | CS(=O)(=O)NCCCn1cnc(-c2ccc(F)cc2)c1-c1ccncc1
248 to 249 °C | CNC(=O)c1n[nH]cc1NC(=O)c1ccccn1
155 to 160 °C | CS(=O)(=O)c1ccc(C(CC2CCCC2)C(=O)Nc2ncc(C(N)=O)s2)cc1 (stereo unspecified)
121 to 124 °C | CC1(C)CN2C(=NS(=O)C2=Nc2ccc(Cl)cc2)S1 (stereo unspecified)
160 to 161 °C | COC(=O)[C@H](CC(C)C)NC(=O)c1ccc2c(c1)Nc1ccccc1S2
128 to 129 °C | Cc1ccc2ncc(CSc3ccc(N)cc3)n2c1

From a melting point compilation (Tetko et al.; mined from patent text by program, amines drawn as free bases though some values may be those of a salt)
